# Where two headings read alike, the source gives them in different places.
# Experiments:
# [1] = parameters: method as in Di et al. (2015); details: ref Di et al. (2015); cited from earlier work
# MRP3 [2] = biological target: T1, MRP3 (Rattus norvegicus, UniProt O88563); assay: Ussing chamber bidirectional transport, model validation for MRP3 (teniposide substrate, benzbromarone inhibitor); type: in vitro ADME; details: rat
# T1 construct: intestinal segments including duodenum, jejunum, ileum, and colon from anesthetized rats were immediately removed by surgery; from tissue; host or cells: stripped rat intestine (jejunum and ileum in validation; jejunum for the emodin studies)
# T1 sequence (O88563 whole entry): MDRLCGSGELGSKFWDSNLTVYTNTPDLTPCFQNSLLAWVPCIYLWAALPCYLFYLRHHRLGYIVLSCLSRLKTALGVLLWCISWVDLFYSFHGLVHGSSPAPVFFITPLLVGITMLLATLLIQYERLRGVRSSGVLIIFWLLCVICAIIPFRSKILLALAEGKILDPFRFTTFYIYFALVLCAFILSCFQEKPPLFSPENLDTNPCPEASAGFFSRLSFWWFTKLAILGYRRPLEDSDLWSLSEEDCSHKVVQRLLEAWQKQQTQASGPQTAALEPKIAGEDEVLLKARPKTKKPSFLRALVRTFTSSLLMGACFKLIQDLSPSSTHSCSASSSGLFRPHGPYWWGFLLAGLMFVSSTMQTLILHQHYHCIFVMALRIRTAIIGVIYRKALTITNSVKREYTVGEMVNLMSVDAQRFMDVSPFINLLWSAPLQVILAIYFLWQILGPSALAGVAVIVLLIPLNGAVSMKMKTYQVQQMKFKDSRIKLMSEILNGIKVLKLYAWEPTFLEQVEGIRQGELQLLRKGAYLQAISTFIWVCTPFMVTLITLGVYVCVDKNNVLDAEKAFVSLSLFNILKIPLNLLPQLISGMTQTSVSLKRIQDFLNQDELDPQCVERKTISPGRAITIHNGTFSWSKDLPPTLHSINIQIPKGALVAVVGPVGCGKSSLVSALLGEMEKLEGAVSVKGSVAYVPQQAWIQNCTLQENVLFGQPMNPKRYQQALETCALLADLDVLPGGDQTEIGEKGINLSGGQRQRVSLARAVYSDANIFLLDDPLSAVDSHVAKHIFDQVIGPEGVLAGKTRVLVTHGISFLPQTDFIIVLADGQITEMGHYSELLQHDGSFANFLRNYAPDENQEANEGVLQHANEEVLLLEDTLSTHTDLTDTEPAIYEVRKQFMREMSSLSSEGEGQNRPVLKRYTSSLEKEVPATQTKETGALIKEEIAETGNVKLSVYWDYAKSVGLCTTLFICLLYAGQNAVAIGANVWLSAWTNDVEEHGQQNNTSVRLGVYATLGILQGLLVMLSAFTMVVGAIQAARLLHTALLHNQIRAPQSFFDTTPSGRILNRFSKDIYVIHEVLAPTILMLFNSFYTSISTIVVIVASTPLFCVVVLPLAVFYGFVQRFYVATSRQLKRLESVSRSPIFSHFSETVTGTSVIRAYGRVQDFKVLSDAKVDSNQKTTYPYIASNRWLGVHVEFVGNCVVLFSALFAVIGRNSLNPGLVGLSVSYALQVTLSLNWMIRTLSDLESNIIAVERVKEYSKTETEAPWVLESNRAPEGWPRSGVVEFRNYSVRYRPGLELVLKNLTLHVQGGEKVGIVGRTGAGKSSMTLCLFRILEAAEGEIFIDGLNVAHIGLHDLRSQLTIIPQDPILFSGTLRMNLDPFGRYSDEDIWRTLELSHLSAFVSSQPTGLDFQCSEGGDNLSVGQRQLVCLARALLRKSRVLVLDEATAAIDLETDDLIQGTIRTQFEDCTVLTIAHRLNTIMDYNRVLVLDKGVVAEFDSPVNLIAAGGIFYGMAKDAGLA
# Description: (§1) The four intestinal segments including duodenum, jejunum, ileum, and colon from anesthetized rats were immediately removed by surgery and washed with KRB solution. Each section of the intestinal segments was then placed in cold (on ice), bubbled (O2:CO2 95:5) KRB buffer. The four intestinal segments were then cut into 2 cm pieces, respectively, and serosas were removed by blunt dissection. Peyer’s patches were excluded from the experiment by visually identified. The stripped tissues were mounted in chambers with exposed surface area of 0.49 cm^2. Temperature of the chambers was maintained at 37 ± 0.5°C. Each of the half-cells in the chambers was filled with 5 mL fresh KRB buffer (pH 6.5). Tissue viability was continuously controlled by potential difference (PD). Tissue with electrical values less than 2 mV was refused ([Moazed and Hiebert, 2007]; [Heinen et al., 2013]).
# Digoxin, pravastatin, and teniposide were employed as the test substrates of P-gp, MRP2, and MRP3. […] The experiments were started after 30 min equilibration time, by changing the KRB buffer on both sides; 5 mL KRB solution with different test compounds was filled in the mucosal or serosal compartment; meanwhile, equal volume fresh buffer was added to the other compartment. […] The bidirectional transport studies with specific inhibitors were assessed to validate this model whether or not suitable for P-gp, MRP2, and MRP3 studies. Samples were stored at –80°C until analysis ([Deusser et al., 2013]).
# (§2) Frozen samples were adequately vortexed after thawing at the room temperature; 10 μL suitable IS solution was added to 200 μL samples; 200 μL methanol was added after a thorough vortex mixing for 30 s. The mixtures were then vortexed for 30 s and centrifuged at 15,000 rpm for 30 min. Finally, 5 μL of supernatant was injected into the LC-MS/MS system.
# (§3) The quantifications of the compounds were performed by the TSQ Quantum Ultra Triple Quadrupole LC-MS/MS system from Thermo Fisher Scientific. Chromatography was carried out using an Agilent Poroshell 120 SB-C18 (2.7 μm, 2.1 mm × 100 mm) column with a Phenomenex AFO-8497 C18 pre-column, operating at 30°C. Adaptive gradient elution methods were applied for the analytes. The flow rate of the mobile phase was kept at 0.2 mL min^-1. Flow was directed to the ion spray interface. All measurements were carried out in negative ESI mode. Ion spray voltage was -2500 V. Vaporizer and capillary temperatures were set at 250 and 350°C, respectively. Auto sampler temperature was set at 10°C. Sheath gas and aux gas were set at 30 and 15 Arb, respectively. […] Peak integrations and calibrations were carried out using LC Quan 2.5.2 software from Thermo Fisher Scientific.
# (§4) The Q (accumulative quantity), Papp (apparent permeability), Er (efflux ratio), Pr (Papp ratio), and Err (Er ratio) across the excited rat intestinal segments in the Ussing chamber were calculated using the following equations ([Li et al., 2012]; [Huang et al., 2016]): […]
# (§5) where Cn (nM) is the concentration of the drug at the time point (n), Q (nM) is the accumulated absorption amount, A is the exposed surface area of the intestine (0.49 cm^2), dQ/dt (nM⋅s^-1) is the amount of the drug transported, and C0 (nM) is the initial concentration of the test drug. Experiments were performed in batches, so control groups were set as one for each batch.
# MRP3 [3] = biological target: T1, MRP3; assay: Influence of emodin on MRP3 function: teniposide bidirectional transport in the presence of emodin (Ussing chamber); type: in vitro ADME; details: rat jejunum; for Papp at 60 μM: rat
# Description: as §1
# (§6) In this study, the effects of the three efflux transporters on emodin intestinal absorption were investigated. Meanwhile, the influence of emodin on intestinal P-gp, MRP2, and MRP3 functions were also discussed. Solutions with three concentrations (low, middle, and high) of emodin were filled in the mucosal or serosal compartment to measure the bidirectional transport characteristic. […] In the emodin impact experiments, digoxin, pravastatin, and teniposide were employed as P-gp, MRP2, and MRP3 substrates. Changes of the bidirectional transport characteristic were measured before and after adding emodin to the mucosal side.
# as §2, §3, §4, §5
# [4] = Absorption characteristics of emodin in rat intestinal segments (Ussing chamber)
# Description: as §1
# as §6, with “side. […]” for “side.”
# (§7) The quantifications of the compounds were performed by the TSQ Quantum Ultra Triple Quadrupole LC-MS/MS system from Thermo Fisher Scientific. […]
# as §4
# P-gp [5] = assay: Emodin transport in jejunum in the presence of P-gp inhibitor verapamil (Ussing chamber); details: rat jejunum, emodin 9.25 μM, verapamil 220 μM on mucosal side
# Description: as §1, with “Tissue viability was continuously controlled by potential difference (PD). Tissue with electrical values less than 2 mV was refused ([Moazed and Hiebert, 2007]; [Heinen et al., 2013]).” left out
# (§8) In this study, the effects of the three efflux transporters on emodin intestinal absorption were investigated. […] Changes of the bidirectional transport characteristic were measured before and after adding emodin to the mucosal side. […]
# as §7, §4
# MRP2 = MRP2 (Rattus norvegicus, UniProt Q63120); assay: Emodin transport in jejunum in the presence of MRP2 inhibitor MK571 (Ussing chamber); details: MK571 186 μM on mucosal side
# Chain of MRP2 (Q63120 whole entry, the tested form may be a part): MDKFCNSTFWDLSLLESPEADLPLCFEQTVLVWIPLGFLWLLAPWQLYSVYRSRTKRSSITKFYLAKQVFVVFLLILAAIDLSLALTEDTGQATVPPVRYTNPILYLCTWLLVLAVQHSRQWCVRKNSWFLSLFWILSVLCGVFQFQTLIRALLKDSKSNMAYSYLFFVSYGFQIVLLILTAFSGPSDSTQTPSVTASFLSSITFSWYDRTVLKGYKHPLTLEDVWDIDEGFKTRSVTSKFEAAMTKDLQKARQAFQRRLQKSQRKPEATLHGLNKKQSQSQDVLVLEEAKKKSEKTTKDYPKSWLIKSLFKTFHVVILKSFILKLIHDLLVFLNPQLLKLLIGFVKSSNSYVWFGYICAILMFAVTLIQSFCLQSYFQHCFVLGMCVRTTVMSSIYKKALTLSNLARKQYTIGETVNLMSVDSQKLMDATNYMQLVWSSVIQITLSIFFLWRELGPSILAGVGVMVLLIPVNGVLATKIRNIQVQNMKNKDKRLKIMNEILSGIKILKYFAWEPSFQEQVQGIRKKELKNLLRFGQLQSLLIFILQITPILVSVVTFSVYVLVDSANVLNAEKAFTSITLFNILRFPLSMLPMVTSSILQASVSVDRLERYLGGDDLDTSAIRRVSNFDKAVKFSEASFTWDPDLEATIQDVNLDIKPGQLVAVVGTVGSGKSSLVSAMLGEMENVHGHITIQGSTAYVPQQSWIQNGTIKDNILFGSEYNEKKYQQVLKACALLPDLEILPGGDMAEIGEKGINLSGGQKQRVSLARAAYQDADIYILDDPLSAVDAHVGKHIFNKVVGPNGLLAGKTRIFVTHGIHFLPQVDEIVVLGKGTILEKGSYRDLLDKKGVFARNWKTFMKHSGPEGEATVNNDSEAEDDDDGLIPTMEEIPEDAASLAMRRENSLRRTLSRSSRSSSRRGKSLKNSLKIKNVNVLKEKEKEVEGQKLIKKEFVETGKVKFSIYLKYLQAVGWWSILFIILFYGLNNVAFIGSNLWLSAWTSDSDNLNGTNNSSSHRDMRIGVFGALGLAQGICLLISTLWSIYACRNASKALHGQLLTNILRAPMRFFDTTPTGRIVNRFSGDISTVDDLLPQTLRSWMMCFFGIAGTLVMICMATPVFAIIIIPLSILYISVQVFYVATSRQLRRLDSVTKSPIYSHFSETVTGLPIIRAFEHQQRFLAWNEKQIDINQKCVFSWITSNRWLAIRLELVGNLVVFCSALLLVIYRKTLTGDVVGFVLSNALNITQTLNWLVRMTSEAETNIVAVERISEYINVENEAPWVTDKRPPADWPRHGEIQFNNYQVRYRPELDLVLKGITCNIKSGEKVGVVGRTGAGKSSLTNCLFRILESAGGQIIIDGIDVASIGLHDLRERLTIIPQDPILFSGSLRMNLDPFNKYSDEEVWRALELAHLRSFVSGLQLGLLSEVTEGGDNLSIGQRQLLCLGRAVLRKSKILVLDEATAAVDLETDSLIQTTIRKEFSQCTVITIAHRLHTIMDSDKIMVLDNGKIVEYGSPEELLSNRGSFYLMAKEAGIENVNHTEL
# Description: as §1, with “Tissue viability was continuously controlled by potential difference (PD). Tissue with electrical values less than 2 mV was refused ([Moazed and Hiebert, 2007]; [Heinen et al., 2013]).” left out
# as §8, §7, §4
# MRP3 [6] = biological target: T1, MRP3; assay: Emodin transport in jejunum in the presence of MRP3 inhibitor benzbromarone (Ussing chamber); type: in vitro ADME
# Description: as §1, with “Tissue viability was continuously controlled by potential difference (PD). Tissue with electrical values less than 2 mV was refused ([Moazed and Hiebert, 2007]; [Heinen et al., 2013]).” left out
# as §8, §7, §4
# P-gp [7] = assay: Influence of emodin on P-gp function: digoxin bidirectional transport in the presence of emodin (Ussing chamber); type: in vitro ADME; details: rat jejunum, emodin 185, 370, 740 μM, digoxin as substrate
# Description: as §1, §6, §2, §3, §4, §5
# P-glycoprotein (P-gp) = tested on: P-glycoprotein (P-gp); parameters: method as in Teng et al., 2007, 2012; Liu et al., 2012; details: ref Teng et al., 2007, 2012, Liu et al.; cited from earlier work
# [8] = tested on: multidrug-resistant associated protein 2 (MRP2); parameters: method as in Teng et al., 2007, 2012; Liu et al., 2012; details: ref Teng et al., 2007, 2012, Liu et al.; cited from earlier work
# Caco-2 cell = tested on: Caco-2 cell; parameters: method as in Yu et al. (2017); details: Caco-2 cell culture model; ref Yu et al. (2017); cited from earlier work
smiles,measurement,setting,value
O=C(/C=C/C=C/c1ccc2c(c1)OCO2)N1CCCCC1 [piperine],Effect on glucuronidation metabolism of emodin,[1],inhibited
same,Effect on in vivo bioavailability of emodin,[1],significantly improved
COc1cc([C@@H]2c3cc4c(cc3[C@@H](O[C@@H]3O[C@@H]5CO[C@@H](c6cccs6)O[C@H]5[C@H](O)[C@H]3O)[C@H]3COC(=O)[C@H]23)OCO4)cc(OC)c1O [Teniposide],Papp,"MRP3 [2]; pH 6.5, rat colon, without inhibitor, read-out: Papp M-S, control",16 ± 11.1 ×10⁻⁶ cm/s
same,Papp,"MRP3 [2]; pH 6.5, rat colon, without inhibitor, read-out: Papp S-M, control",21.3 ± 11.9 ×10⁻⁶ cm/s
same,Papp,"MRP3 [2]; pH 6.5, rat ileum, without inhibitor, read-out: Papp M-S, control",12.6 ± 7.7 ×10⁻⁶ cm/s
same,Papp,"MRP3 [2]; pH 6.5, rat ileum, without inhibitor, read-out: Papp S-M, control",24.5 ± 10 ×10⁻⁶ cm/s
same,Papp,"MRP3 [2]; pH 6.5, rat jejunum, without inhibitor, read-out: Papp M-S, control",14 ± 4.4 ×10⁻⁶ cm/s
same,Papp,"MRP3 [2]; pH 6.5, rat jejunum, without inhibitor, read-out: Papp S-M, control",33.5 ± 14 ×10⁻⁶ cm/s
same,Papp,"MRP3 [2]; pH 6.5, with benzbromarone 470 μM, mucosal side, rat colon, with benzbromarone 470 μM on mucosal side, read-out: Papp M-S, with inhibitor",28.3 ± 8.4 ×10⁻⁶ cm/s
same,Papp,"MRP3 [2]; pH 6.5, with benzbromarone 470 μM, mucosal side, rat colon, with benzbromarone 470 μM on mucosal side, read-out: Papp S-M, with inhibitor",8.3 ± 1.9 ×10⁻⁶ cm/s
same,Papp,"MRP3 [2]; pH 6.5, with benzbromarone 470 μM, mucosal side, rat ileum, with benzbromarone 470 μM on mucosal side, read-out: Papp M-S, with inhibitor",28 ± 19.5 ×10⁻⁶ cm/s
same,Papp,"MRP3 [2]; pH 6.5, with benzbromarone 470 μM, mucosal side, rat ileum, with benzbromarone 470 μM on mucosal side, read-out: Papp S-M, with inhibitor",10.3 ± 2.9 ×10⁻⁶ cm/s
same,Papp,"MRP3 [2]; pH 6.5, with benzbromarone 470 μM, mucosal side, rat jejunum, with benzbromarone 470 μM on mucosal side, read-out: Papp M-S, with inhibitor",37.2 ± 9.7 ×10⁻⁶ cm/s
same,Papp,"MRP3 [2]; pH 6.5, with benzbromarone 470 μM, mucosal side, rat jejunum, with benzbromarone 470 μM on mucosal side, read-out: Papp S-M, with inhibitor",13.1 ± 6.4 ×10⁻⁶ cm/s
same,Change of Papp from S-M and Er of teniposide in the presence of emodin,"MRP3 [3]; teniposide 60 μM, emodin 185, 370, 740 μM",remarkably decreased
same,Papp at 60 μM,"MRP3 [3]; pH 6.5, teniposide 60 μM, without emodin, read-out: Papp M-S, control",69.4 ± 17.5 ×10⁻⁶ cm/s
same,Papp at 60 μM,"MRP3 [3]; pH 6.5, teniposide 60 μM, without emodin, read-out: Papp S-M, control",81.8 ± 15.9 ×10⁻⁶ cm/s
same,Papp at 60 μM,"MRP3 [3]; pH 6.5, with emodin 185 μM on mucosal side, teniposide 60 μM, emodin 185 μM on mucosal side, read-out: Papp M-S in the presence of emodin",63.2 ± 5.9 ×10⁻⁶ cm/s
same,Papp at 60 μM,"MRP3 [3]; pH 6.5, with emodin 185 μM on mucosal side, teniposide 60 μM, emodin 185 μM on mucosal side, read-out: Papp S-M in the presence of emodin",56.1 ± 5.7 ×10⁻⁶ cm/s
same,Papp at 60 μM,"MRP3 [3]; pH 6.5, with emodin 370 μM on mucosal side, teniposide 60 μM, emodin 370 μM on mucosal side, read-out: Papp M-S in the presence of emodin",52.5 ± 7.3 ×10⁻⁶ cm/s
same,Papp at 60 μM,"MRP3 [3]; pH 6.5, with emodin 370 μM on mucosal side, teniposide 60 μM, emodin 370 μM on mucosal side, read-out: Papp S-M in the presence of emodin",31.2 ± 13.2 ×10⁻⁶ cm/s
same,Papp at 60 μM,"MRP3 [3]; pH 6.5, with emodin 740 μM on mucosal side, teniposide 60 μM, emodin 740 μM on mucosal side, read-out: Papp M-S in the presence of emodin",91.1 ± 27.3 ×10⁻⁶ cm/s
same,Papp at 60 μM,"MRP3 [3]; pH 6.5, with emodin 740 μM on mucosal side, teniposide 60 μM, emodin 740 μM on mucosal side, read-out: Papp S-M in the presence of emodin",41.1 ± 6.2 ×10⁻⁶ cm/s
"Cc1cc(O)c2c(c1)C(=O)c1cc(O)cc(O)c1C2=O [Emodin, 1,3,8trihydroxy-6-methylanthraquinone]",Regioselectivity of intestinal absorption rates,"[4]; duodenum, jejunum, ileum, colon, 9.25, 18.5 and 37 μM",no regioselectivity
same,Papp values from M-S,"[4]; rat intestinal segments, lowest concentration (9.25 μM)",very low
same,Er (efflux ratio) of emodin,"[4]; rat jejunum, at all three concentrations 9.25, 18.5 and 37 μM",more than five
same,Change of emodin absorption (M-S) with verapamil,P-gp [5],markedly increase
same,Change of emodin efflux ratio with verapamil,P-gp [5],decrease
same,Change of emodin Papp from mucosal to serosal side with MK571,MRP2,significantly increased
same,Change of emodin efflux ratio with MK571,MRP2,decreased
same,Substrate of MRP3,MRP3 [6]; Ussing chamber,might not be a substrate
same,Change of emodin transport with benzbromarone,MRP3 [6]; benzbromarone 470 μM on mucosal side,no significant differences
same,Effect of emodin on P-gp function,P-gp [7],could enhance P-gp function
same,Effect of emodin on MRP3 function,"MRP3 [3]; emodin 185, 370, 740 μM, teniposide as substrate",might be an MRP3 inhibitor
same,Substrate of P-gp,P-glycoprotein (P-gp),substrate
same,Substrate of MRP2,[8],substrate
"OC[C@H]1O[C@@H](Oc2c(O)cc(O)cc2C=Cc2ccc(O)cc2)[C@H](O)[C@@H](O)[C@@H]1O [2,3,5,4’-tetrahydroxystilbene-2-β-D-glucoside]",Effect on emodin absorption,Caco-2 cell,could enhance

# Reference: publication PMC6023986, “Interactions Between Emodin and Efflux Transporters on Rat Enterocyte by a Validated Ussing Chamber Technique” (Frontiers in Pharmacology, 2018)
